Source: US20080275058A1, “N-Substituted-1H-Quinoline-2,4-Diones, Preparation Method Thereof, And Pharmaceutical Composition Containing The Same” (KOREA RESEARCH INSTITUTE OF CHEMICAL TECHNOLOGY, priority 2005, published 2008)

What was measured:
hD2L = biological target: T1, hD2L (Homo sapiens, UniProt P14416); experiment: Radioligand binding, dopamine D2 ([3H]spiperone); details: Table 4; [3H]spiperone 1 nM; read-out: Binding affinity, IC50 (nM) D2
T1 construct: purchased BioSignal Packard Inc., Montreal, Canada
Procedure, shortened: (§1)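 IC50 values come from nonlinear fits of three displacement experiments, each using 7-8 test concentrations in duplicate. D2L and D3 membranes were labelled with 1 nM [3H]spiperone, and D4.2 with 0.06 nM [3H]YM-09151-2. All assays used pH 7.4 Tris buffers, with the D3 buffer adding 120 mM NaCl, KCl and CaCl2.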

hD3 = biological target: T2, hD3 (Homo sapiens, UniProt P35462); experiment: Radioligand binding, dopamine D3 ([3H]spiperone); details: Table 4; [3H]spiperone 1 nM; read-out: Binding affinity, IC50 (nM) D3
T2 construct: purchased BioSignal Packard Inc., Montreal, Canada
Procedure, shortened: as §1

5-HT6 receptors = 5-HT6 receptors (Homo sapiens, UniProt P50406); experiment: Adenylyl cyclase activity (cAMP accumulation) in HeLa cells transfected with human 5-HT6 receptor; format: cell-based; details: for increase in cAMP level inhibited (FIG. 1): 5-HT-induced cAMP increase
[1] = test system: HeLa cells transfected with the human 5-HT6 receptor; experiment: Cytotoxicity in HeLa cells transfected with the human 5-HT6 receptor; format: cell-based; details: at the concentrations tested
rats = experiment: Methamphetamine-induced disruption of prepulse inhibition (PPI) in rats; format: in vivo, rat; details: administered 30 min before methamphetamine
Procedure: To assay antipsychotic properties of the compounds according to the invention, prepulse inhibition (PPI) of acoustic startle in animals was performed. Startle response was measured using SR-LAB startle chamber (San Diego Instruments, San Diego, USA). The animal enclosure was housed in a ventilated and sound-attenuated startle chamber with 60 dB ambient noise level, and consisted of a Plexiglas cylinder 40 mm in diameter on a platform, connected to a piezoelectric accelerometer which detects and transducer motion within the cylinder. Acoustic noise bursts were presented through a loudspeaker mounted 24 ? above the animal. […] Each startle session began with a 5-min acclimatization period in the chamber to 68 dB background noises. The test session consisting of the following four different trial types was carried for all experiments: a 40 ms broadband 120 dB burst (P; pulse alone trial), P preceded 100 ms earlier by a 20 ms noise burst 10 dB above background (pP; prepulse+pulse trial), a 40 ms broadband 78 dB burst (prepulse alone trial), and a no stimulus trial (background). Eight trials of each type were presented in a pseudorandom order (total32 trials) with an average interval of 15 sec. separating each trial. An extra 5 pulse-alone trials were presented at the beginning and end of each test session, but were not used in the calculation of PPI values. PPI was defined as the percent reduction in startle amplitude in the presence of prepulse compared to the amplitude in the absence of the prepulse using the following Math Equation 1. […] Differences were considered significant at P<0.05. Statistical analyses were conducted using SigmaStat software (SigmaStat, Jandel Co., San Rafael, Calif.). The data were expressed as means±SEM.

[2] = HeLa, read-out: inhibition of 0.3 μM serotonin (5-HT)-induced increase in cAMP levels

5-HT6 receptors, sequence (P50406 whole entry): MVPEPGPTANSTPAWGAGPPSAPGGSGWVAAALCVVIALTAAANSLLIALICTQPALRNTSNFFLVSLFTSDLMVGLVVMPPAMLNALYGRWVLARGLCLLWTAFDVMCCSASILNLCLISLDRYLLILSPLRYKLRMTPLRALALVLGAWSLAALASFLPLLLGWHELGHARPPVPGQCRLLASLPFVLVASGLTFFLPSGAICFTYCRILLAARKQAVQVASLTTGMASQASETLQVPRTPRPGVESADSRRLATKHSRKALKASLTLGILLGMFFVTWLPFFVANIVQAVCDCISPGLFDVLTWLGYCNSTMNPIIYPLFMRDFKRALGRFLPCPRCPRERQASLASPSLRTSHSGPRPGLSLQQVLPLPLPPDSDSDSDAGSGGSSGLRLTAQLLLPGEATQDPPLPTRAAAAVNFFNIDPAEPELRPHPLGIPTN
T1 sequence (P14416 whole entry): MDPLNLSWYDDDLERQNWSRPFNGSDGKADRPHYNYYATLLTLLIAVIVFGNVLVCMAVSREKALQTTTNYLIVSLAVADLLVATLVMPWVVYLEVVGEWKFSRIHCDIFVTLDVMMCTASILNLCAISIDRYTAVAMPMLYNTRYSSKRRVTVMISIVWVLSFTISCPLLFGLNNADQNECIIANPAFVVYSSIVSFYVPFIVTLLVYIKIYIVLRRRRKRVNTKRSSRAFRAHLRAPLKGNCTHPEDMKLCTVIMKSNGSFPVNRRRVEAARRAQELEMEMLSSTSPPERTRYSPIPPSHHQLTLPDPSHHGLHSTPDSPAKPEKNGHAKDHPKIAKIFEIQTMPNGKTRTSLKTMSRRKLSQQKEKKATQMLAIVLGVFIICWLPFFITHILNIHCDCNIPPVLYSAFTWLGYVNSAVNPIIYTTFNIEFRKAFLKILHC
T2 sequence (P35462 whole entry): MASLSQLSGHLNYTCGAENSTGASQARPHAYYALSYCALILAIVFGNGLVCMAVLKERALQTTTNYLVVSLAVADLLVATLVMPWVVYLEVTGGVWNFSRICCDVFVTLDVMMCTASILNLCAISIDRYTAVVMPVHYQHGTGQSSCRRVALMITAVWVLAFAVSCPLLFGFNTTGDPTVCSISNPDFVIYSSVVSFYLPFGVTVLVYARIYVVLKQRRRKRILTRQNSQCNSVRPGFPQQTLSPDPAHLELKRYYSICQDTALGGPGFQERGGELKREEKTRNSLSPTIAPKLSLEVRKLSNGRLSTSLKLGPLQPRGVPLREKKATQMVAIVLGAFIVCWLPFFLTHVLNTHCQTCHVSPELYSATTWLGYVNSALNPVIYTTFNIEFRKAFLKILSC

| SMILES | IC50 (hD2L) [nM] | IC50 (hD3) [nM] | IC50 (5-HT6 receptors) [nM] | increase in cAMP level inhibited (FIG. 1) (5-HT6 receptors) | inhibition at 0.001 µM (5-HT6 receptors; [2]) [%] | inhibition at 0.01 µM (5-HT6 receptors; [2]) [%] | inhibition at 0.1 µM (5-HT6 receptors; [2]) [%] | inhibition at 1 µM (5-HT6 receptors; [2]) [%] | inhibition at 10 µM (5-HT6 receptors; [2]) [%] | cytotoxicity [1] | mean startle amplitude compared with methamphetamine group (rats) |
| --- | --- | --- | --- | --- | --- | --- | --- | --- | --- | --- | --- |
| CC1(c2ccc(O)cc2)C(=O)c2c(N3CCNCC3)cc(Cl)cc2N(Cc2ccccc2)C1=O (racemic) [Example 14, 1-Benzyl-7-chloro-3-(4-hydroxy-phenyl)-3-methyl-5-piperazin-1-yl-1H-quinoline-2,4-dione] | > 10000 | 1500 | 28.7 | inhibited | 10 | 22 | 81 | 100 | 100 | did not show any cytotoxicity | no significant differences |
| COc1ccc(C2(C)C(=O)c3c(N4CCNCC4)cc(Cl)cc3N(Cc3ccccc3)C2=O)cc1 (racemic) [Example 13, 1-Benzyl-7-chloro-3-(4-methoxy-phenyl)-3-methyl-5-piperazin-1-yl-1H-quinoline-2,4-dione] | > 10000 | 345 | – | inhibited | – | – | – | – | – | – | no significant differences |
